Source: PubChem BioAssay AID248 (DTP/NCI, 2004)
Several values for one entry are separate records, joined by “and”; a condition that tells them apart may be missing. Equal values may be shown once. Inconclusive results and toxic doses are left out. Cut-off read from the data, not from the text of the source: active = T/C of 150% or more; inactive = T/C below 125%.

System: L1210 leukemia ip in BDF1 mice, survival T/C
Test: NCI In Vivo Anticancer Drug Screen. Data for tumor model L1210 Leukemia (intraperitoneal) in B6D2F1 (BDF1) mice
Details: endpoint: mean survival time, higher = longer survival
In short: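 Tumor was transplanted into mice, which were then dosed with test compound or vehicle alone. Survival was recorded for each group, and the treated figure was expressed relative to the control figure.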

[1] = dose: 100.0 mg/kg/injection, schedule: Q01DX001 (ip), vehicle: carboxymethylcellulose (CMC)
[2] = dose: 100.0 mg/kg/injection, schedule: Q04DX003 (ip), vehicle: saline with Tween-80
[3] = dose: 200.0 mg/kg/injection, schedule: Q01DX001 (ip), vehicle: carboxymethylcellulose (CMC)
[4] = dose: 200.0 mg/kg/injection, schedule: Q04DX003 (ip), vehicle: saline with Tween-80
[5] = dose: 400.0 mg/kg/injection, schedule: Q01DX001 (ip), vehicle: carboxymethylcellulose (CMC)
[6] = dose: 400.0 mg/kg/injection, schedule: Q04DX003 (ip), vehicle: saline with Tween-80
[7] = dose: 100.0 mg/kg/injection, schedule: Q01DX001 (ip), vehicle: saline
[8] = dose: 200.0 mg/kg/injection, schedule: Q01DX001 (ip), vehicle: saline
[9] = dose: 400.0 mg/kg/injection, schedule: Q01DX001 (ip), vehicle: saline
[10] = dose: 50.0 mg/kg/injection, schedule: Q01DX009 (ip), vehicle: Klucel (hydroxypropylcellulose) (HPC)
[11] = dose: 100.0 mg/kg/injection, schedule: Q01DX009 (ip), vehicle: Klucel (hydroxypropylcellulose) (HPC)
[12] = dose: 200.0 mg/kg/injection, schedule: Q01DX009 (ip), vehicle: Klucel (hydroxypropylcellulose) (HPC)
[13] = dose: 400.0 mg/kg/injection, schedule: Q01DX009 (ip), vehicle: Klucel (hydroxypropylcellulose) (HPC)
[14] = dose: 100.0 mg/kg/injection, schedule: Q01DX009 (ip), vehicle: saline with Tween-80
[15] = dose: 75.0 mg/kg/injection, schedule: Q01DX001 (ip), vehicle: saline
[16] = dose: 150.0 mg/kg/injection, schedule: Q01DX001 (ip), vehicle: saline
[17] = dose: 300.0 mg/kg/injection, schedule: Q01DX001 (ip), vehicle: saline

Measured: T/C

CC12c3ccccc3C(c3ccccc31)C1C(=O)OC(=O)C12 (stereo unspecified)
inactive: [1] 98 % of control | [2] 90 % of control | [3] 96 % of control | [4] 92 % of control | [5] 93 % of control

COc1cccc(/C=N\NC(=O)C(C)SC(C)C(=O)N/N=C/c2cccc(OC)c2)c1 (stereo unspecified)
inactive: dose: 100.0 mg/kg/injection, schedule: Q01DX009 (ip), vehicle: other 91 % of control | dose: 100.0 mg/kg/injection, schedule: Q04DX003 (ip), vehicle: other 89 % of control | dose: 200.0 mg/kg/injection, schedule: Q01DX009 (ip), vehicle: other 94 % of control | dose: 200.0 mg/kg/injection, schedule: Q04DX003 (ip), vehicle: other 89 % of control | dose: 400.0 mg/kg/injection, schedule: Q01DX009 (ip), vehicle: other 94 % of control | dose: 400.0 mg/kg/injection, schedule: Q04DX003 (ip), vehicle: other 96 % of control

ClCCOCCOc1ccccc1
inactive: [2] 96 % of control | [4] 100 % of control | [6] 101 % of control

O=S1(=O)C=Cc2ccccc21
inactive: [7] 106 % of control | dose: 100.0 mg/kg/injection, schedule: Q01DX009 (ip), vehicle: acetone 92 % of control | dose: 100.0 mg/kg/injection, schedule: Q04DX003 (ip), vehicle: saline 95 % of control | [8] 106 % of control | dose: 200.0 mg/kg/injection, schedule: Q01DX009 (ip), vehicle: acetone 91 % of control | dose: 200.0 mg/kg/injection, schedule: Q04DX003 (ip), vehicle: saline 97 % of control | [9] 100 % of control | dose: 400.0 mg/kg/injection, schedule: Q01DX009 (ip), vehicle: acetone 97 % of control | dose: 400.0 mg/kg/injection, schedule: Q04DX003 (ip), vehicle: saline 88 % of control

O=C1c2ccccc2C(=O)c2c(Nc3ccccc3)ccc(O)c21
inactive: dose: 100.0 mg/kg/injection, schedule: Q04DX003 (ip), vehicle: Klucel (hydroxypropylcellulose) (HPC) 97 % of control | dose: 200.0 mg/kg/injection, schedule: Q04DX003 (ip), vehicle: Klucel (hydroxypropylcellulose) (HPC) 98 % of control

CCOc1ccc2nc(/C=C/c3ccc(N(C)C)cc3)ccc2c1
inactive: [10] 94 % of control | [11] 94 % of control | [12] 92 % of control | [13] 100 % of control

O=[N+]([O-])c1cc(C(F)(F)F)cc([N+](=O)[O-])c1Cl
inactive: dose: 12.5 mg/kg/injection, schedule: Q01DX001 (ip), vehicle: Klucel (hydroxypropylcellulose) (HPC) 91 % of control | dose: 25.0 mg/kg/injection, schedule: Q01DX001 (ip), vehicle: Klucel (hydroxypropylcellulose) (HPC) 91 % of control

CCOC(=O)c1ccc(NC(=O)Nc2ccccc2OC)cc1
inactive: dose: 100.0 mg/kg/injection, schedule: Q01DX001 (ip), vehicle: saline with Tween-80 89 % of control | [14] 92 % of control | dose: 100.0 mg/kg/injection, schedule: Q04DX002 (ip), vehicle: saline with Tween-80 94 % of control and 87 % of control | dose: 200.0 mg/kg/injection, schedule: Q01DX001 (ip), vehicle: saline with Tween-80 92 % of control | dose: 200.0 mg/kg/injection, schedule: Q01DX009 (ip), vehicle: saline with Tween-80 95 % of control | dose: 200.0 mg/kg/injection, schedule: Q04DX002 (ip), vehicle: saline with Tween-80 87 % of control and 91 % of control | [4] 87 % of control | dose: 400.0 mg/kg/injection, schedule: Q01DX001 (ip), vehicle: saline with Tween-80 86 % of control | dose: 400.0 mg/kg/injection, schedule: Q01DX009 (ip), vehicle: saline with Tween-80 87 % of control | dose: 400.0 mg/kg/injection, schedule: Q04DX002 (ip), vehicle: saline with Tween-80 87 % of control | [6] 92 % of control

O=C(COc1cc(Cl)c(Cl)cc1Cl)OCCOc1cc(Cl)c(Cl)cc1Cl
inactive: dose: 7.5 mg/kg/injection, schedule: Q01DX001 (ip), vehicle: saline 97 % of control | dose: 15.0 mg/kg/injection, schedule: Q01DX001 (ip), vehicle: saline 95 % of control | dose: 30.0 mg/kg/injection, schedule: Q01DX001 (ip), vehicle: saline 93 % of control

O=[N+]([O-])c1cccc2c1/C(=N/O)c1ccccc1-2
inactive: [1] 101 % of control | [3] 92 % of control | [5] 98 % of control

N#Cc1ccncc1
inactive: [11] 91 % of control | [12] 93 % of control | [13] 96 % of control

O=C(NC(c1ccccc1)C(Cl)(Cl)Cl)c1ccccc1 (stereo unspecified)
inactive: [10] 97 % of control | [11] 97 % of control | [12] 97 % of control

Cc1nc(Br)c(Br)n1C
inactive: dose: 25.0 mg/kg/injection, schedule: Q04DX002 (ip), vehicle: Klucel (hydroxypropylcellulose) (HPC) 110 % of control | dose: 50.0 mg/kg/injection, schedule: Q01DX009 (ip), vehicle: carboxymethylcellulose (CMC) 103 % of control and 104 % of control | dose: 50.0 mg/kg/injection, schedule: Q04DX002 (ip), vehicle: Klucel (hydroxypropylcellulose) (HPC) 92 % of control | dose: 100.0 mg/kg/injection, schedule: Q01DX009 (ip), vehicle: carboxymethylcellulose (CMC) 96 % of control and 118 % of control | dose: 100.0 mg/kg/injection, schedule: Q04DX002 (ip), vehicle: Klucel (hydroxypropylcellulose) (HPC) 100 % of control and 91 % of control | dose: 100.0 mg/kg/injection, schedule: Q04DX002 (ip), vehicle: carboxymethylcellulose (CMC) 105 % of control | dose: 100.0 mg/kg/injection, schedule: Q04DX003 (ip), vehicle: carboxymethylcellulose (CMC) 91 % of control | dose: 200.0 mg/kg/injection, schedule: Q01DX009 (ip), vehicle: carboxymethylcellulose (CMC) 96 % of control and 110 % of control | dose: 200.0 mg/kg/injection, schedule: Q04DX002 (ip), vehicle: carboxymethylcellulose (CMC) 97 % of control and 105 % of control | dose: 200.0 mg/kg/injection, schedule: Q04DX003 (ip), vehicle: carboxymethylcellulose (CMC) 104 % of control

N=C(N)Sc1cnc2ccccc2n1
inactive: [7] 95 % of control | [8] 97 % of control | [9] 105 % of control

CC(C)(C)CC(C)(C)N(CSc1ccc2ccccc2c1)CSc1ccc2ccccc2c1
inactive: [7] 98 % of control | [8] 98 % of control | [9] 91 % of control

O=S(=O)(C1CCCCC1)N1N=NC2CCCCC21 (stereo unspecified)
inactive: dose: 50.0 mg/kg/injection, schedule: Q01DX009 (ip), vehicle: saline with Tween-80 93 % of control | [14] 90 % of control

CC(C)=CCNc1nc(=O)[nH]c2nc[nH]c12
inactive: [15] 92 % of control | [16] 88 % of control | [17] 88 % of control

CC(CCC(=O)O)Cc1ccccc1 (stereo unspecified)
inactive: dose: 25.0 mg/kg/injection, schedule: Q01DX009 (ip), vehicle: saline 101 % of control | dose: 50.0 mg/kg/injection, schedule: Q01DX009 (ip), vehicle: saline 101 % of control | dose: 100.0 mg/kg/injection, schedule: Q01DX009 (ip), vehicle: saline 86 % of control

CCCCc1c(O)nc(NCCCC(N)C(=O)O)[nH]c1=O (stereo unspecified)
inactive: [15] 93 % of control | [16] 95 % of control | [17] 96 % of control
